Earlier results as cited in article PMC12308805, “Ultrahigh-Throughput Virtual Screening Strategies against PPI Targets: A Case Study of STAT Inhibitors” (Journal of Chemical Information and Modeling, 2025).
Where two headings read alike, the source gives them in different places. Square brackets hold non-standard residues; d marks the D form. Peptide text beside a SMILES is read from it. * marks the point of attachment. aThr = C[C@H](O)[C@H](N)C(=O)O; Isobutyryl = CC(C)C(=O)*

System: STAT3
Details: sheet 6QHD_actives_decoys, cited from earlier work; for Type: retrospective screening set for STAT3 SH2 domain (PDB 6QHD), ref DUD-E; for Type (known STAT3 active): known STAT3 actives of the retrospective screening set, ref ChEMBL / literature
[1] = decoys generated with DUD-E and presumed inactive, not tested
[2] = decoys are presumed inactives, not tested

Row | SMILES | Type [1] | Type [2] | also measured
1 | CC[C@H]1OC(=O)[C@@H](C)[C@@H](O[C@@H]2C[C@@](C)(OC)[C@H](O)[C@H](C)O2)[C@@H](C)[C@@H](O[C@H]2O[C@@H](C)C[C@@H](N(C)C)[C@H]2O)[C@](C)(O)C[C@@H](C)/C(=N\OCOCCOC)[C@@H](C)[C@@H](O)[C@@]1(C)O [Decoy580] | Inactive (Decoy) | – | –
2 | CCOc1ccc(NC(=O)CSC2=C(C#N)[C@H](c3ccco3)C(C(=O)Nc3ccc(OC)cc3)=C(C)N2)cc1 [Decoy721] | Inactive (Decoy) | – | –
3 | COC(=O)CNC(=O)c1ccc(NC(=O)c2nc(NCc3ccco3)ncc2Cl)cc1 [Decoy529] | Inactive (Decoy) | – | –
4 | CCOC(=O)N[C@@](Nc1ccc(S(=O)(=O)Nc2ncccn2)cc1)(C(=O)OCC)C(F)(F)F [Decoy792] | – | Inactive (Decoy) | –
5 | Cc1n[nH]c2nc(SCC(=O)NCCc3ccc(S(N)(=O)=O)cc3)[n+](-c3ccc(Br)cc3)c(N)c12 [Decoy390] | Inactive (Decoy) | – | –
6 | C=C[C@](C)(CC/C=C(\C)CC/C=C(\C)C[C@H](O)/C=C(\C)C(=O)O)O[C@@H]1O[C@H](CO)[C@@H](O)[C@H](O)[C@H]1O[C@@H]1O[C@H](CO)[C@@H](O)[C@H](O)[C@H]1O [Decoy689] | Inactive (Decoy) | – | –
7 | CCOC(=O)c1c(C)[nH]c(C(=O)OCC(=O)NCC(=O)Nc2ccc(F)c(F)c2F)c1C [Decoy761] | – | Inactive (Decoy) | –
8 | CO[C@@H]1C[C@H](O[C@H]2CC[C@]3(/C=N/CC#N)[C@H]4CC[C@]5(C)[C@@H](C6=CC(=O)OC6)CC[C@]5(O)[C@@H]4CC[C@]3(O)C2)O[C@@H](C)[C@@H]1O [Decoy348] | – | – | Type ([…]): Inactive (Decoy)
9 | CNC(=O)[C@H](CCC(N)=O)NC(=O)[C@@H]1Cc2cccc3c2N1C(=O)[C@@H](NC(=O)/C=C/c1ccc(OP(=O)(O)O)cc1)CC3 [CHEMBL454365] | – | – | Type (known STAT3 active): Active
10 | COC(=O)CNC(=O)C[C@@](C)(O)CC(=O)O[C@H]1[C@@H](O)C[C@@]2(C)C3=C(CC[C@H]2C1(C)C)[C@@]1(C)CC[C@H]([C@H](CO)CC[C@H](O)C(C)(C)O)[C@]1(C)[C@@H](O)C3 [Decoy481] | Inactive (Decoy) | – | –
11 | CC[C@H](C)[C@@H](NC(=O)CNC(=O)CCc1c(C)c2cc3c(C)coc3c(C)c2oc1=O)C(=O)O [Decoy650] | Inactive (Decoy) | – | –
12 | CCOC(=O)c1ccc(NC(=O)c2cc([N+](=O)[O-])ccc2NC(=O)CNCc2ccc3c(c2)OCO3)cc1 [Decoy729] | – | Inactive (Decoy) | –
13 | COc1ccc(CCNc2ccc3nnc(CCNS(=O)(=O)c4ccccc4OC)n3n2)cc1OC [Decoy899] | – | Inactive (Decoy) | –
14 | COc1cc([N+](=O)[O-])ccc1NC(=O)C[C@H]1N=C(N/C(N)=N/c2ccccc2C)N=C1O [Decoy615] | Inactive (Decoy) | – | –
15 | CC(=O)O[C@H]1[C@H](O)[C@H]([C@@](C)(O)CC[C@@H](O)C(C)(C)O)[C@@]2(C)CC[C@@]34C[C@@]35CC[C@H](O[C@@H]3OC[C@@H](O)[C@H](O)[C@H]3O)C(C)(C)[C@@H]5CC[C@H]4[C@]12C [Decoy347] | Inactive (Decoy) | – | –
16 | COC(=O)c1sc2cc(SCC(=O)Nc3cc(OC)c(OC)c(OC)c3)ccc2c1/N=C(\O)C(F)(F)F [Decoy807] | – | Inactive (Decoy) | –
17 | CCOC(=O)CCC(=O)O[C@H]1[C@@H](O[C@@H]2[C@H](C)[C@H](O[C@@H]3C[C@@](C)(OC)[C@H](O)[C@H](C)O3)[C@H](C)C(=O)O[C@@H](CC)[C@@](C)(O)[C@H](O)[C@H](C)C(=O)[C@H](C)C[C@@]2(C)O)O[C@@H](C)C[C@H]1N(C)C [Decoy820] | – | Inactive (Decoy) | –
18 | CCOC(=O)CCCCC(=O)c1[nH]c(=O)[nH]c1CSc1nnc2c3ccccc3n(CCc3ccccc3)c2n1 [Decoy938] | – | Inactive (Decoy) | –
19 | CCN(CC)c1ccc2c(-c3ccc(S(=O)(=O)NCCSS(C)(=O)=O)cc3S(=O)(=O)[O-])c3ccc(=[N+](CC)CC)cc-3oc2c1 [Decoy829] | – | Inactive (Decoy) | –
20 | CC(C)C[C@H](NC(=O)/C=C/c1ccc(OP(=O)(O)O)cc1)C(=O)N1CCC[C@H]1C(=O)NCCOC(N)=O [CHEMBL576590] | – | – | Type (known STAT3 active): Active
21 | CC(=O)Nc1cccc(NC(=O)CSc2nnc(N/N=C/c3c(O)ccc4ccccc34)n2N)c1 [Decoy752] | – | Inactive (Decoy) | –
22 | C[N+]1=C(/C=C/C=C2/N(CCCCC(=O)NCCOCCOCCNCCO[C@H]3O[C@@H](CO)[C@@H](O)[C@H](O)[C@H]3O)c3ccccc3C2(C)C)C(C)(C)c2ccccc21 [Decoy589] | Inactive (Decoy) | – | –
23 | CCCCN(CC(=O)Nc1c(-c2ccccc2)c(C)nn1-c1ccc(OC)cc1)C(=O)c1ccc(OC)cc1OC [Decoy368] | Inactive (Decoy) | – | –
24 | CCN(CC)S(=O)(=O)c1ccc(NC(=O)CSc2n[nH]c(NN=C3CCCC3)n2)cc1 [Decoy684] | Inactive (Decoy) | – | –
25 | CCOC(=O)c1c(NC(=O)CSc2n[nH]c(N/N=C/c3ccc(F)cc3)n2)sc2c1CCCC2 [Decoy437] | Inactive (Decoy) | – | –
26 | CCN(CC)S(=O)(=O)c1ccc(OC)c(NC(=O)COc2cc(C)ccc2C(N)=O)c1 [Decoy867] | – | Inactive (Decoy) | –

Row | SMILES | Type [1] | Type [2] | also measured
27 | Cc1ccnc(NS(=O)(=O)c2ccc(NC(=O)c3cc([N+](=O)[O-])c(Cl)c([N+](=O)[O-])c3)cc2)n1 [Decoy530] | – | – | Type ([…]): Inactive (Decoy)
28 | O=C(O)CN(CC(=O)O)CC1=C[C@H]2C(=CC1=O)Oc1cc(O)c(CN(CC(=O)O)CC(=O)O)cc1[C@@]21OC(=O)c2ccccc21 [Decoy652] | Inactive (Decoy) | – | –
29 | Nc1ncnc2c1ncn2[C@@H]1O[C@@H](CO[P@@](=O)(O)O[P@@](=O)(O)OC[C@H](O)[C@H](O)[C@H](O)C=O)[C@@H](O)[C@H]1O [Decoy402] | Inactive (Decoy) | – | –
30 | [H]/N=C(N/C(N)=N\c1nc(C)c2cc(OC)ccc2n1)\C(C(=O)c1ccccc1)=C(/O)OCC [Decoy667] | Inactive (Decoy) | – | –
31 | COC(=O)c1ccc(NC(=O)CSc2nc(N)c(NC(=O)c3ccc(Br)o3)c(=O)[nH]2)cc1 [Decoy351] | Inactive (Decoy) | – | –
32 | CC(C)C[C@H](NC(=O)[C@H](Cc1ccc(O)cc1)NC(=O)[C@H]1CCCN1C(=O)CN)C(=O)N1CCC[C@H]1C(=O)N[C@@H](CCC(N)=O)C(=O)N[C@H](C(=O)N[C@H](C(N)=O)C(C)C)[C@H](C)O [CHEMBL2367507] (H-G[dP]YLPQ[aThr]V-NH2) | – | – | Type (known STAT3 active): Active
33 | CC(C)COC(=O)c1ccc(Nc2ncnc(NNC(=O)Cc3ccc([N+](=O)[O-])cc3)c2[N+](=O)[O-])cc1 [Decoy822] | – | Inactive (Decoy) | –
34 | O=[N+]([O-])c1ccc(S(=O)(=O)Nc2cccc(NS(=O)(=O)c3ccc([N+](=O)[O-])cc3)c2)cc1 [Decoy459] | – | – | Type ([…]): Inactive (Decoy)
35 | COc1c(O)ccc(/C=N/NC(=O)/C(=C\c2ccc(N(C)C)cc2)NC(=O)c2ccccc2)c1[N+](=O)[O-] [Decoy941] | – | Inactive (Decoy) | –
36 | CS(=O)(=O)SCCNC(=O)[C@H](N)CCCCNC(=O)CCCCCNC(=O)CCCC[C@@H]1SC[C@H]2NC(=O)N[C@H]12 [Decoy749] | – | Inactive (Decoy) | –
37 | COc1cc(O)c(C(C)=O)c(O[C@@H]2O[C@@H](CO[C@H]3O[C@@H](CO)[C@@H](O)[C@@H](O)[C@H]3O)[C@@H](O)[C@@H](O)[C@H]2O)c1 [Decoy717] | Inactive (Decoy) | – | –
38 | COC(=O)CCSCCO[C@@H]1O[C@H](CO)[C@@H](O[C@@H]2O[C@H](CO)[C@@H](O)[C@@H](O)[C@H]2O)[C@@H](O)[C@H]1NC(C)=O [Decoy352] | Inactive (Decoy) | – | –
39 | O=c1ccn([C@@H]2O[C@H](CO[P@](=O)(O)O[P@@](=O)(O)O[C@H]3OC[C@@H](O)[C@H](O)[C@H]3O)[C@@H](O)[C@H]2O)c(=O)[nH]1 [Decoy865] | – | Inactive (Decoy) | –
40 | CCOC(=O)c1cc(C(=O)OCC)c(=O)[nH]c1NN=C1CCN(c2ncc(C(F)(F)F)cc2Cl)CC1 [Decoy499] | Inactive (Decoy) | – | –
41 | NC(=O)CC[C@H](NC(=O)[C@@H]1Cc2cccc3c2N1C(=O)[C@@H](NC(=O)/C=C/c1ccc(OP(=O)(O)O)cc1)CC3)C(=O)NCc1ccccc1 [CHEMBL449547] | – | – | Type (known STAT3 active): Active
42 | Cc1cc(NC(=O)CSc2nncn2C)ccc1-c1ccc(NC(=O)CSc2nncn2C)cc1C [Decoy777] | – | Inactive (Decoy) | –
43 | C=C(CO[C@H]1O[C@@H](CO[C@H]2OC[C@@H](O)[C@@H](O)[C@H]2O)[C@@H](O)[C@@H](O)[C@H]1O)[C@H]1Cc2c(ccc3c2O[C@@H]2COc4cc(OC)c(OC)cc4[C@H]2C3=O)O1 [Decoy686] | – | – | Type ([…]): Inactive (Decoy)
44 | CCOC(=O)C1=C(C)NC(=O)N[C@H]1c1ccc(OCC(=O)N/N=C/c2ccc(SC)cc2)c(OC)c1 [Decoy818] | – | Inactive (Decoy) | –
45 | COc1ccc([C@H]2Oc3c(OC)cc(CCCO)cc3[C@@H]2CO)cc1O[C@@H]1O[C@@H](CO)[C@@H](O)[C@@H](O)[C@@H]1O [Decoy527] | Inactive (Decoy) | – | –
46 | CNC(=O)[C@H](CC(C)C)NC(=O)[C@H](Cc1cnc[nH]1)NC(=O)[C@@H](C)NC(=O)[C@@H](NC(=O)[C@H](C)NC(=O)[C@H](Cc1c[nH]c2ccccc12)NC(=O)[C@H](Cc1cnc[nH]1)NC(=O)C(C)C)C(C)C [Decoy806] (Isobutyryl-HWAV[dA]HL-NHMe) | – | Inactive (Decoy) | –
47 | NC(=O)CC[C@H](NC(=O)[C@@H]1Cc2cccc3c2N1C(=O)[C@@H](NC(=O)/C=C/c1ccc(OP(=O)(O)O)cc1)CC3)C(N)=O [CHEMBL449511] | – | – | Type (known STAT3 active): Active
48 | Cn1c(CCCC(=O)O)nc2cc(N(CCO)CCOC(=O)CCCc3nc4cc(N(CCO)CCO)ccc4n3C)ccc21 [Decoy826] | – | Inactive (Decoy) | –
49 | O=S1(=O)CC[C@@H](NCOC(COCN[C@H]2CCS(=O)(=O)C2)COCN[C@H]2CCS(=O)(=O)C2)C1 [Decoy819] | – | Inactive (Decoy) | –
50 | CCc1nnc(NS(=O)(=O)c2ccc(NC(=O)c3ccc(S(=O)(=O)N(CCC#N)CCC#N)cc3)cc2)s1 [Decoy466] | Inactive (Decoy) | – | –
51 | CC(C)(CO[P@](=O)(O)O[P@](=O)(O)OC[C@H]1O[C@@H](n2cnc3c(N)ncnc32)[C@@H](O)[C@H]1O)[C@H](O)C(=O)NCCC(=O)NCCS [Decoy640] | Inactive (Decoy) | – | –
52 | COc1cc(CNC(=O)CSc2n[nH]c(N/N=C/c3cc(OC)c(O)cc3[N+](=O)[O-])n2)cc(OC)c1 [Decoy737] | – | Inactive (Decoy) | –
